Data published in the supplement of paper PMC10307832.

Legend:
Assay in all cases: relative viability (nuclei count vs DMSO), 5 days (fraction); higher = more cells survive
[1] = compound: C1COCCN1C2=NC(=NC3=C2OC4=C3C=CC=N4)C5=CC(=CC=C5)NC(=O)C6=CN=C(C=C6)N + CC(=O)c1c(C)c2cnc(Nc3ccc(N4CCNCC4)cn3)nc2n(C2CCCC2)c1=O [Palbociclib] (partner 0.5 µM)
Method in brief: (§1)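 Nuclei were stained with Hoechst during a one-step fixation (final 0.05% Triton X-100, 1% formaldehyde, 1 ug/ml Hoechst) carried out 5 days after dosing, then counted on 4× images. The cells, lung cancer lines in 1536-well plates, had been dosed by pin tool the day after seeding with one drug alone or a fixed anchor-drug dose plus five library-drug doses (not always all listed) in √10 steps. Relative viability is the nuclei count in treated wells divided by that in vehicle wells, and each value is the median of duplicate plates.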

SGI-1776 + Bortezomib = compound: CN1CCC(CNc2ccc3ncc(-c4cccc(OC(F)(F)F)c4)n3n2)CC1 [SGI-1776] + CC(C)C[C@H](NC(=O)[C@H](Cc1ccccc1)NC(=O)c1cnccn1)B(O)O [Bortezomib] (partner 0.002 µM)
Method in brief: as §1

SGI-1776 + Foretinib = compound: CN1CCC(CNc2ccc3ncc(-c4cccc(OC(F)(F)F)c4)n3n2)CC1 [SGI-1776] + COc1cc2c(Oc3ccc(NC(=O)C4(C(=O)Nc5ccc(F)cc5)CC4)cc3F)ccnc2cc1OCCCN1CCOCC1 [Foretinib] (partner 0.25 µM)
Method in brief: as §1

SGI-1776 + Lapatinib = compound: CN1CCC(CNc2ccc3ncc(-c4cccc(OC(F)(F)F)c4)n3n2)CC1 [SGI-1776] + CS(=O)(=O)CCNCc1ccc(-c2ccc3ncnc(Nc4ccc(OCc5cccc(F)c5)c(Cl)c4)c3c2)o1 [Lapatinib] (partner 2 µM)
Method in brief: as §1

Cell Line | relative viability ([1]; first compound 0.02 µM) | relative viability ([1]; first compound 0.06325 µM) | relative viability ([1]; first compound 0.2 µM) | relative viability ([1]; first compound 0.6325 µM) | relative viability ([1]; first compound 2 µM) | relative viability (SGI-1776 + Bortezomib; first compound 0.08 µM) | relative viability (SGI-1776 + Bortezomib; first compound 0.8 µM) | relative viability (SGI-1776 + Bortezomib; first compound 2.53 µM) | relative viability (SGI-1776 + Bortezomib; first compound 8 µM) | relative viability (SGI-1776 + Foretinib; first compound 0.08 µM) | relative viability (SGI-1776 + Foretinib; first compound 0.8 µM) | relative viability (SGI-1776 + Foretinib; first compound 2.53 µM) | relative viability (SGI-1776 + Foretinib; first compound 8 µM) | relative viability (SGI-1776 + Lapatinib; first compound 0.08 µM) | relative viability (SGI-1776 + Lapatinib; first compound 0.8 µM) | relative viability (SGI-1776 + Lapatinib; first compound 2.53 µM) | relative viability (SGI-1776 + Lapatinib; first compound 8 µM)
201T | 0.357 | 0.358 | 0.372 | 0.346 | 0.324 | 1.09 | 1.08 | 1.11 | 0.986 | 1.13 | 1.09 | 1.03 | 1.02 | 1 | 0.981 | 1.02 | 0.942
A549 |  |  |  |  |  |  |  |  |  | 1.07 | 0.891 | 0.752 | 0.277 | 0.965 | 0.993 | 0.958 | 0.652
A-427 | 0.517 | 0.524 | 0.496 | 0.512 | 0.454 | 1.04 | 1.03 | 0.931 | 0.749 | 1.15 | 1.17 | 0.972 | 0.983 | 1.05 | 1.02 | 1.01 | 0.966
ABC-1 | 0.562 | 0.658 | 0.55 | 0.7 | 0.471 | 0.299 | 0.323 | 0.364 | 0.241 | 1.06 | 0.974 | 0.984 | 0.64 | 1.36 | 1.16 | 1.28 | 1.1
BEN | 0.465 | 0.44 | 0.498 | 0.464 | 0.425 | 0.909 | 0.918 | 0.754 | 0.624 | 0.72 | 0.623 | 0.472 | 0.552 | 0.695 | 0.739 | 0.705 | 0.532
CAL-12T | 0.351 | 0.44 | 0.285 | 0.398 | 0.326 | 1.35 | 0.982 | 0.918 | 0.867 | 1.21 | 1.08 | 1.25 | 0.577 | 0.635 | 0.61 | 0.871 | 0.598
COR-L23 | 0.262 | 0.314 | 0.3 | 0.307 | 0.229 | 1.13 | 0.937 | 0.971 | 0.846 | 0.976 | 0.92 | 1.02 | 0.931 | 1.1 | 0.9 | 0.914 | 0.922
COR-L 105 | 0.413 | 0.403 | 0.371 | 0.363 | 0.359 | 0.929 | 0.833 | 0.587 | 0.282 | 0.857 | 1.1 | 0.72 | 0.734 | 0.332 | 0.394 | 0.388 | 0.244
Calu-6 |  |  |  |  |  | 0.954 | 1.06 | 0.954 | 0.658 | 0.91 | 0.88 | 0.875 | 0.344 | 1.12 | 1.11 | 1.01 | 0.771
ChaGo-K-1 | 0.994 | 0.983 | 0.968 | 0.835 | 0.502 | 0.982 | 1.22 | 0.644 | 0.785 | 0.834 | 0.96 | 0.993 | 0.741 |  |  |  | 
EBC-1 |  |  |  |  |  | 0.6 | 0.548 | 0.514 | 0.304 | 0.0952 | 0.0955 | 0.127 | 0.0874 | 0.207 | 0.214 | 0.182 | 0.138
EKVX | 0.357 | 0.393 | 0.353 | 0.373 | 0.438 | 0.98 | 1.05 | 1.14 | 0.972 | 1.36 | 0.837 | 0.863 | 0.749 | 0.225 | 0.205 | 0.209 | 0.166
EMC-BAC-2 | 0.54 | 0.545 | 0.501 | 0.498 | 0.456 | 1.06 | 1.01 | 1.1 | 1.04 | 1.02 | 0.99 | 1.11 | 0.846 | 0.912 | 0.902 | 0.836 | 0.849
EPLC-272H | 0.313 |  | 0.313 | 0.37 | 0.329 | 0.939 | 1.06 | 0.927 | 0.739 | 0.82 | 0.66 | 0.768 | 0.528 | 1.04 | 0.889 | 1.1 | 0.771
H3255 | 0.308 | 0.308 | 0.306 | 0.308 | 0.305 | 0.963 | 0.75 | 0.606 | 0.33 | 1.02 | 0.994 | 0.801 | 0.864 | 0.285 | 0.33 | 0.259 | 0.198
HARA | 0.207 | 0.242 | 0.246 |  | 0.263 | 1.2 | 1.21 | 1.01 | 1.05 | 1.04 | 0.946 | 0.718 | 0.913 | 0.886 | 0.856 | 0.617 | 0.586
HCC-15 | 0.742 | 0.775 | 0.67 | 0.682 | 0.574 | 1.03 | 1.03 | 1.02 | 0.886 | 0.989 | 1.07 | 1.04 | 0.824 | 0.821 | 0.882 | 0.933 | 0.786
HCC-44 | 0.952 | 0.987 | 0.96 | 1.01 | 1.01 | 0.942 | 0.908 | 0.98 | 0.895 |  |  |  |  | 1.04 | 1.15 | 1.01 | 0.962
HCC-78 | 0.48 | 0.484 | 0.476 | 0.427 | 0.378 | 0.48 | 0.516 | 0.516 | 0.45 | 0.553 | 0.566 | 0.595 | 0.606 | 0.848 | 0.7 | 0.783 | 0.698
HCC-366 | 0.397 | 0.435 | 0.367 | 0.419 | 0.22 | 0.919 | 1.11 | 0.98 | 1.12 | 0.907 | 0.963 | 0.961 | 0.392 | 1.12 | 0.95 | 0.992 | 0.837
